The text below walks through data of US12702715B2, “Targeted RNA degradation allows precision repurposing of protein-targeted small molecule medicines to RNA” (University of Florida Research Foundation, Incorporated, priority 2020, dated 2026).

The subject of one series is FLT3. The experiment in a line: FLT3 degradation Western blot in MDA-MB-231 cells. The format is cell-based, human. As to the method:
In each case, the secondary antibody was diluted two times more than the primary antibody.
On the technique in general: In western blotting, separated proteins are transferred to a membrane and probed.

A further series deals with RNase L (Homo sapiens, UniProt Q05823). The experiment in a line: In vitro RNase L oligomerization. The format is biochemical. Here is the method:
In Vitro RNase L Oligomerization. To a solution of RNase L (3 μM) in 1× RNase L Buffer (add components) was added MgCl2, fresh β-mercaptoethanol, and ATP to final concentrations of 10 mM, 7 mM, and 50 μM respectively. The oligomerization of RNase L induced by small molecules was assessed as previously reported^6. The monomeric and oligomeric RNase L protein was resolved by Western blot and detected using an RNase L primary antibody (1:6000 dilution; Cell Signaling Technology, D4B4J). The blot was incubated with the antibody in 1×TBST (Tris-buffered saline supplemented with 0.1% (v/v) Tween-20) and 5% (w/v) nonfat dry milk at 4° C. overnight. After washing, the blot was incubated with 1:12000 anti-rabbit IgG, HRP-linked Antibody (Cell Signaling Technology, 7074S) in 1×TBST with 5% (w/v) nonfat dry milk for 1 h at room temperature. After washing with 1×TBST for 10 min three times, monomeric and oligomerized RNase L protein was detected by using SuperSignal West Pico Chemiluminescent Substrate (Pierce Biotechnology). ImageJ software was used for quantification.

In series [1] the test system is wild type (WT) mice (Col4a3+/+). Put plainly: Wild type mice, control for Alport studies. It counts as in vivo, mouse. As to the method: Alport Mice Studies. Alport mice (Col4a3^−/−) and wild type (WT) mice (Col4a3^+/+) were obtained from the breeding of heterozygous […]. Urine was collected 1 day before the treatment, considered as Day 1. The treatment started at Day 2, at around 4 weeks of age. Alport mice were treated with vehicle or 2 as described for NOD/SCID mice in the “In Vivo Studies to Assess Metastasis of Breast Cancer to the Lung” section. Urine was collected every other day for analysis of albumin or creatine levels. After 6 weeks of treatment, the mice were euthanized on Day 43. One kidney was frozen in −80° C. for Western blot and RT-qPCR analyses. The other kidney was fixed in formalin for paraffin-embedding sectioning and further staining.
Evaluation of Kidney Function. The concentration of urine albumin was determined by using a Mouse Albumin ELISA Kit (Bethyl Laboratories Inc, E99-134) per the manufacturer's protocol. Urine creatinine level was measured by using a Urinary Creatinine Assay Kit (Fisher Scientific, 50-673-569) per the manufacturer's protocol.
Kidney Tissue Histology. Silver staining, PAS staining, and PPARα staining were performed by Histology Core at Scripps Research Florida. The anti-PPARα (Abcam, ab215270) was used at 1:1000 dilution. FISH imaging of miR-21 and pre-miR-21 were completed as described in “Lung Tissue Histology”.

In a further series the test system is pre-miR-21 mutant. The experiment in a line: In vitro Chem-CLIP, pre-miR-21 mutant. It counts as binding. The settings on record: 1, 5, 20 or 100 μM. Here is the method: In Vitro Chemical Cross-linking and Isolation by Pull Down (Chem-CLIP) and Competitive Chem-CLIP (C-Chem-CLIP). Growth medium [RMPI 1640 medium with L-glutamine & 25 mM HEPES (Corning)] was inactivated by heating at 95° C. to for 15 min and slowly cooling to room temperature at benchtop. Pre-miR-21 labeled with ^32P at the 5′-end (~10,000 counts) was folded in growth medium by heating at 95° C. for 1 min and slowly cooling to room temperature. To the samples was added Chem-CLIP probe 4 (1, 5, 20 or 100 μM) or negative control probe 5 (1, 5, 20 or 100 μM), and the mixtures were incubated at 37° C. for 1 h. The samples were then cross-linked by irradiation with 365 nm light for 10 min. The Chem-CLIP probe 4 or control probe 5, whether or not cross-linked to the RNA, was then clicked to disulfide biotin azide (10 mM in DMSO; 10 μL per sample; 1168-10, Click Chemistry Tools) by incubating in a solution containing 1×HEPES buffer (25 mM, pH 7), sodium ascorbate (10 μL/sample, 250 mM in H2O), CuSO4 (10 μL/sample, 50 mM in H2O), THPTA (10 μL/sample, 50 mM in H2O) for 2 h at 37° C. […] The radioactive signal from bound RNAs (on the beads) and unbound RNAs (from the wash steps) were measured by using a Beckman Coulter LS6500 Liquid Scintillation Counter. Enrichment of pre-miR-21 was calculated as previously described^6. […]

Entries after “also recorded” stand apart in the source; their conditions may differ.

Sequence of RNase L (Q05823 whole entry, species assumed): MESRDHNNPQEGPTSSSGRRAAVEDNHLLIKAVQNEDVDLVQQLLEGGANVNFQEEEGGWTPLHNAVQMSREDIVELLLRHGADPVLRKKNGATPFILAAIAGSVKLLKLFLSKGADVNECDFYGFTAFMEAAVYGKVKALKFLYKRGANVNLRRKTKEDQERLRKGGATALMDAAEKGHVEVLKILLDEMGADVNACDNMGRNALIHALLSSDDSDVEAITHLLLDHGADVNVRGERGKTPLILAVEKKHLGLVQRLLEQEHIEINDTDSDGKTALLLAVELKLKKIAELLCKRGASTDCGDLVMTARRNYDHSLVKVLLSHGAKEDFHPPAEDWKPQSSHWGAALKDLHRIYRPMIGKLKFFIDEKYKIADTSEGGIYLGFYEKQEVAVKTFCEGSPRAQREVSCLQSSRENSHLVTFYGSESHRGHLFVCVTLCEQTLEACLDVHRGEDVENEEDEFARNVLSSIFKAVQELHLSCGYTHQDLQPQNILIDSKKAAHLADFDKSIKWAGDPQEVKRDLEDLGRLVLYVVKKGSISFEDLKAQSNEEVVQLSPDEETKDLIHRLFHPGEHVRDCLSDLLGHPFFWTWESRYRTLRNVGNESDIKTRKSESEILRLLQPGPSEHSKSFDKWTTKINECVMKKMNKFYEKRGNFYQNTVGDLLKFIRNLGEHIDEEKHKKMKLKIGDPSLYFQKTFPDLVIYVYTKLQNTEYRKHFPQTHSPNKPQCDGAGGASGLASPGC

For the compound `CCOC(=O)C1=C(Nc2ccccc2)S/C(=C\c2ccc(OCCOCCOCCOCCNC(=O)NCCN3CCN(c4ccc5[nH]c(-c6c(N)c7c(F)cccc7[nH]c6=O)nc5c4)CC3)c(O)c2)C1=O` [Compound 2, Ribotac-Dovitinib], the “fold greater concentration than 1 required to compete off degradation by PROTAC 3” value in the series with FLT3 stood at 100 fold. The “concentration required to compete off the target degradation of PROTAC 3” value in the series with FLT3 (co-treatment with 3) came to 10 µM. Besides, the “RNase L oligomerization / dimerization” value at RNase L is “recruits and dimerizes; also recorded: oligomerized RNase L in a dose dependent manner”. For the same compound, in series [1] (56 mg/kg q.o.d., 6 weeks), the “body weight of WT mice” value was “gained weight at a similar rate as vehicle-treated mice”. Besides, in series [1] (WT mice), the “PPARα expression in kidneys” value is “no significant effect”. Besides, in series [1] (WT mice, 56 mg/kg q.o.d.), the “urine albumin normalized to urine creatinine” value is recorded as “no effect”.

With `C#CCCC1(CCC(=O)NCCN2CCN(c3ccc4[nH]c(-c5c(N)c6c(F)cccc6[nH]c5=O)nc4c3)CC2)N=N1` [Compound 4], the “enrichment of 32P-labeled pre-miR-21 mutant” value in the series on pre-miR-21 mutant is “not mutant”.
